Patent publication US20130296311A1, “INHIBITORS OF HCV NS5A” (PRESIDIO PHARMACEUTICALS, INC., priority 2010, published 2013)

The molecules below were run on HCV 1b_Huh-Luc/Neo-ET cell line persistently expressing a bicistronic genotype 1b replicon in Huh 7 cells (assay: HCV replicon assay (luciferase readout, 72 h)). Settings: Hepatitis C virus, Huh-7, 72 h, read-out: Inhibition of HCV genotype 1b.
Type: cell-based, HCV genotype 1b
Summary of the method: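 Huh 7 cells carrying a bicistronic genotype 1b luciferase/neo replicon received compound in triplicate the day after plating. After 72 h, replicon levels were read as Bright-Glo luciferase activity, expressed as % of control; EC50 was fitted with a four-parameter logistic and determined several times.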

Row | SMILES | EC50 [nM]
1 | O=C(N[C@@H](C(=O)N1CCC[C@H]1c1ncc(-c2ccc(C#Cc3ccc(-c4cnc([C@@H]5CCCN5C(=O)[C@H](NC(=O)N5CCOCC5)c5ccccc5)[nH]4)cc3)cc2)[nH]1)c1ccccc1)N1CCOCC1 [Compound 248] | < 1
2 | C[C@@H](NC(=O)[C@@H]1CCCN1C(=O)[C@H](NC(=O)C1CC1)c1ccccc1)c1ccc(C#Cc2ccc(-c3cnc([C@@H]4CCCN4C(=O)[C@H](NC(=O)C4CC4)c4ccccc4)[nH]3)cc2)cc1 [Compound 168] | < 1
3 | COC(=O)NC1(C(=O)N2CCC[C@H]2c2ncc(-c3ccc(C#Cc4ccc5nc([C@@H]6CCCN6C(=O)C6(NC(=O)OC)CCCC6)[nH]c5c4)cc3)[nH]2)CCCC1 [Compound 1044] | 10 to 999
4 | O=C(N[C@@H](C(=O)N1CCC[C@H]1c1ncc(C#Cc2ccc(-c3cnc([C@@H]4CCCN4C(=O)[C@H](NC(=O)N4CCOCC4)c4ccccc4)[nH]3)cc2)[nH]1)c1ccccc1)N1CCOCC1 [Compound 102] | 1 to 9.9
5 | COC(=O)N[C@@H](Cc1c[nH]c2ccccc12)C(=O)N1CCC[C@H]1c1ncc(-c2ccc(C#Cc3ccc4nc([C@@H]5CCCN5C(=O)[C@H](Cc5c[nH]c6ccccc56)NC(=O)OC)[nH]c4c3)cc2)[nH]1 [Compound 1057] | < 1
6 | COC(=O)N[C@H](C(=O)N[C@@H](C)c1ncc(-c2ccc(C#Cc3ccc(-c4cnc([C@@H]5CCCN5C(=O)[C@@H](NC(=O)OC)[C@@H](C)OC)[nH]4)cc3)cc2)[nH]1)[C@@H](C)OC [Compound 289] | < 1
7 | COC(=O)N[C@@H](C(=O)N1CCC[C@H]1c1ncc(-c2ccc(C#Cc3ccc(-c4cnc([C@@H]5CCCN5C(=O)[C@@H](c5ccccc5)N5CCCC5)[nH]4)cc3)cc2)[nH]1)c1ccccc1 [Compound 178] | < 1
8 | COC(=O)N[C@@H](C(=O)N1CCC[C@H]1c1ncc(C#Cc2ccc(-c3cnc([C@@H]4CCCN4C(=O)[C@@H](c4ccccc4)N(C)C)[nH]3)cc2)[nH]1)c1ccccc1 [Compound 123] | < 1
9 | O=C(N[C@@H](C(=O)N1CCC[C@H]1c1ncc(-c2ccc(C#Cc3ccc(-c4cnc([C@@H]5CCCN5C(=O)[C@H](NC(=O)N5CCCC5)c5ccccc5)[nH]4)cc3)cc2)[nH]1)c1ccccc1)N1CCCC1 [Compound 249] | < 1
10 | COC(=O)N[C@H](C(=O)N1CCC[C@H]1c1ncc(C#Cc2ccc(-c3ccc(-c4cnc([C@@H]5CCCN5C(=O)[C@@H](NC(=O)OC)C(C)C)[nH]4)cc3)cc2)[nH]1)C(C)C [Compound 756] | < 1
11 | CC(=O)N[C@@H](C(=O)N1CCC[C@H]1c1ncc(C#Cc2ccc(C#Cc3cnc([C@@H]4CCCN4C(=O)[C@H](NC(C)=O)c4ccccc4)[nH]3)cc2)[nH]1)c1ccccc1 [Compound 306] | < 1
12 | CN1CCC[C@@H]1C(=O)N[C@@H](C(=O)N1CCC[C@H]1c1ncc(-c2ccc(C#Cc3ccc(-c4cnc([C@@H]5CCCN5C(=O)[C@H](NC(=O)C5CC5)c5ccccc5)[nH]4)cc3)cc2)[nH]1)c1ccccc1 [Compound 216] | < 1
13 | COC(=O)N[C@@H](C(=O)N1CCC[C@H]1c1ncc(-c2ccc(C#Cc3ccc(-c4cnc([C@@H]5CCCN5C(=O)[C@H]5CCCN5C)[nH]4)cc3)cc2)[nH]1)c1ccccc1 [Compound 187] | < 1
14 | COC(=O)N[C@H](C(=O)N1CCC[C@H]1c1ncc(-c2ccc(C#Cc3ccc(-c4cnc([C@@H]5CCCN5C(=O)[C@H](NC(=O)N(CCO)CCO)c5ccccc5)[nH]4)cc3)cc2)[nH]1)C(C)C [Compound 973] | < 1
15 | O=S(=O)(Cc1ccccc1)N1CCC[C@H]1c1ncc(-c2ccc(C#Cc3ccc4nc([C@@H]5CCCN5S(=O)(=O)Cc5ccccc5)[nH]c4c3)cc2)[nH]1 [Compound 1042] | > 1000
16 | COC(=O)N[C@H](C(=O)N1CCC[C@H]1c1ncc(-c2ccc(C#Cc3ccc4nc([C@@H]5CCCN5C(=O)[C@@H](NC(=O)OC)C5CCOCC5)[nH]c4c3)cc2F)[nH]1)C1CCOCC1 [Compound 1070] | < 1
17 | CC(=O)N[C@@H](C(=O)N1CCC[C@H]1c1ncc(C#Cc2ccc(-c3cnc([C@@H]4CCCN4C(=O)[C@H](NC(C)=O)c4ccccc4)[nH]3)cc2)[nH]1)c1ccccc1 [Compound 109] | < 1
18 | COC(=O)N[C@H](C(=O)N1CCC[C@H]1c1ncc(-c2ccc(C#Cc3ccc(-c4cnc([C@@H]5CCCN5C(=O)[C@@H](Nc5ncccn5)C(C)C)[nH]4)cc3)cc2)[nH]1)C(C)C [Compound 1003] | < 1

Row | SMILES | EC50 [nM]
19 | CN1CCN(C(=O)N[C@@H](C(=O)N2CCC[C@H]2c2ncc(C#Cc3ccc(C#Cc4cnc([C@@H]5CCCN5C(=O)[C@H](NC(=O)N5CCN(C)CC5)c5ccccc5)[nH]4)cc3)[nH]2)c2ccccc2)CC1 [Compound 310] | 1 to 9.9
20 | COC(=O)N[C@@H](C(=O)N(C)[C@@H](C)c1ncc(-c2ccc(C#Cc3ccc(-c4cnc([C@@H]5CCCN5C(=O)[C@H](NC(=O)OC)c5ccccc5)[nH]4)cc3)cc2)[nH]1)c1ccccc1 [Compound 274] | < 1
21 | COC(=O)N[C@@H](C(=O)N1CCC[C@H]1c1ncc(C#Cc2ccc(-c3ccc(-c4cnc([C@@H]5CCCN5C(=O)[C@@H](c5ccccc5)N5CCCC5)[nH]4)cc3)cc2)[nH]1)c1ccccc1 [Compound 759] | < 1
22 | O=C(Cc1cccnc1)N[C@@H](C(=O)N1CCC[C@H]1c1cc(-c2ccc(C#Cc3ccc(-c4cnc([C@@H]5CCCN5C(=O)[C@H](NC(=O)Cc5cccnc5)c5ccccc5)[nH]4)cc3)cc2)n[nH]1)c1ccccc1 [Compound 222] | < 1
23 | CC(C)[C@@H](NC(=O)C1CC1)C(=O)N1CCC[C@H]1C(=O)NCCc1ccc(C#Cc2cnc([C@@H]3CCCN3C(=O)[C@H](NC(=O)C3CC3)C(C)C)[nH]2)cc1 [Compound 127] | 10 to 999
24 | O=C([C@@H](c1ccccc1)N1CCOCC1)N1CCC[C@H]1c1ncc(-c2ccc(C#Cc3ccc(-c4cnc([C@@H]5CCCN5C(=O)[C@@H](c5ccccc5)N5CCOCC5)[nH]4)cc3)cc2)[nH]1 [Compound 184] | < 1
25 | COC(=O)N[C@H](C(=O)N1CCC[C@H]1c1ncc(C#Cc2ccc3cc(-c4cnc([C@@H]5CCCN5C(=O)[C@@H](NC(=O)OC)C5CCOCC5)[nH]4)ccc3c2)[nH]1)C1CCOCC1 [Compound 1080] | < 1
26 | CC(C)[C@@H](NC(=O)OC(C)(C)C)C(=O)N1CCC[C@H]1C(=O)NCCc1ccc(C#Cc2cnc([C@@H]3CCCN3C(=O)[C@H](NC(=O)OC(C)(C)C)C(C)C)[nH]2)cc1 [Compound 126] | 10 to 999
27 | COC(=O)N[C@@H](C)C(=O)N1CCC[C@H]1c1ncc(-c2ccc(C#Cc3ccc(-c4cnc([C@@H]5CCCN5C(=O)[C@H](NC(=O)OC)c5ccccc5)[nH]4)cc3)cc2)[nH]1 [Compound 1004] | < 1
28 | COC(=O)N[C@@H](C(=O)N1CCC[C@H]1CNC(=O)c1ccc(C#Cc2ccc(-c3cnc([C@@H]4CCCN4C(=O)[C@H](NC(=O)OC)c4ccccc4)[nH]3)cc2)cc1)c1ccccc1 [Compound 211] | < 1
29 | O=C(N[C@@H](C(=O)N1CCC[C@H]1c1ncc(C#Cc2ccc(-c3ccc(-c4cnc([C@@H]5CCCN5C(=O)[C@H](NC(=O)C5CC5)c5ccccc5)[nH]4)cc3)cc2)[nH]1)c1ccccc1)C1CC1 [Compound 760] | < 1
30 | COC(=O)N[C@H](C(=O)N1CCC[C@H]1c1ncc(-c2cc(C)c(C#Cc3ccc4nc([C@@H]5CCCN5C(=O)[C@@H](NC(=O)OC)C(C)C)[nH]c4c3)c(C)c2)[nH]1)C(C)C [Compound 1060] | < 1
31 | COC(=O)N[C@H](C(=O)N1CCC[C@H]1c1ncc(-c2ccc(C#Cc3ccc4nc([C@@H]5CCCN5C(=O)[C@H](NC(=O)OC)c5ccccc5)[nH]c4c3)cc2)[nH]1)C(C)C [Compound 1023] | < 1
32 | COC(=O)N[C@H](C(=O)N1CCC[C@H]1c1nc(-c2ccc3cc(C#Cc4[nH]c([C@@H]5CCCN5C(=O)[C@@H](NC(=O)OC)C(C)C)nc4C)ccc3c2)c[nH]1)C(C)C [Compound 1081] | < 1
33 | C(#Cc1ccc2nc([C@@H]3CCCN3Cc3ccccc3)[nH]c2c1)c1ccc(-c2cnc([C@@H]3CCCN3Cc3ccccc3)[nH]2)cc1 [Compound 1052] | > 1000
34 | CN(C)C(=O)N[C@@H](C(=O)N1CCC[C@H]1c1ncc(C#Cc2ccc(C#Cc3cnc([C@@H]4CCCN4C(=O)[C@H](NC(=O)N(C)C)c4ccccc4)[nH]3)cc2)[nH]1)c1ccccc1 [Compound 308] | < 1
35 | COC(=O)N[C@H](C(=O)N1CCC[C@H]1c1nc(-c2ccc3cc(C#Cc4cnc([C@@H]5CCCN5C(=O)[C@@H](NC(=O)OC)C5CCOCC5)[nH]4)ccc3c2)c[nH]1)C(C)C [Compound 1079] | < 1

Same assay, conditions: Hepatitis C virus, Huh-7, read-out: Inhibition of HCV genotype 1b

Row | SMILES | EC50 [nM]
36 | COC(=O)N[C@@H](C(=O)N1CCC[C@H]1c1ncc(-c2ccc(C#Cc3ccc4nc([C@@H]5CCCN5C(=O)[C@H](NC(=O)OC)c5ccccc5)[nH]c4c3)cc2F)[nH]1)c1ccccc1 [Compound 1222] | < 1
37 | COC(=O)N[C@H](C(=O)N1CCN(C(=O)OC)C[C@H]1c1ncc(-c2ccc(C#Cc3ccc4nc([C@@H]5CCCN5C(=O)[C@H](NC(=O)OC5CCOCC5)c5ccccc5)[nH]c4c3)cc2)[nH]1)C(C)C [Compound 1231] | < 1
38 | COC(=O)N[C@H](C(=O)N1CCC[C@H]1c1ncc(-c2ccc(C#Cc3ccc(-c4cnc([C@@H]5CCCN5C(=O)[C@@H](NC(=O)OC)C(C)C)[nH]4)cc3C(=O)OC)cc2)[nH]1)C(C)C [Compound 1200] | < 1
39 | COC(=O)N[C@H](C(=O)N1CCN(C(=O)OC)C[C@H]1c1ncc(-c2ccc(C#Cc3ccc4nc([C@@H]5CCCN5C(=O)[C@@H](NC(=O)OC)C(C)C)[nH]c4c3)cc2)[nH]1)C(C)C [Compound 1228] | < 1
40 | CC[C@@H](C)[C@H](NC(=O)OC)C(=O)N1CCC[C@H]1c1ncc(-c2ccc(C#Cc3ccc(-c4cnc([C@@H]5CCCN5C(=O)[C@@H](NC(=O)OC)[C@H](C)CC)[nH]4)cc3)cc2)[nH]1 [Compound 1217] | < 1
41 | COC(=O)N[C@H](C(=O)N1CCN(C(=O)OC)C[C@H]1c1ncc(-c2ccc(C#Cc3ccc4nc([C@@H]5CCCN5C(=O)[C@H](NC(=O)OC)c5ccccc5)[nH]c4c3)cc2)[nH]1)C(C)C [Compound 1230] | < 1
